Source: patent publication US8034803B2, “Photodynamic therapy of occult age-related macular degeneration” (QLT Inc., priority 2001, dated 2011)
Like-named read-outs stand apart in the source and are kept apart here.

What was measured:
[1] = system: occult choroidal neovascular lesions; assay: Verteporfin PDT of occult CNV lesions versus placebo, best corrected visual acuity at 24 months; format: in vivo, human
Protocol: Subjects having, suspected of having, or otherwise afflicted with occult neovascular lesions were evaluated for best corrected visual acuity as outlined in Example 1, and their lesion size determined angiographically as outlined in Example 2. […] The greatest linear dimension of the entire CNV lesion was […], corresponding to 9 Disc Areas. Subjects were evaluated for visual acuity and lesion size about 1 week prior to treatment. Subjects were randomly assigned to a treatment group and a placebo group.
For each subject in the treatment group, a 15 mg-vial of liposomally-formulated verteporfin (Verteporfin for Injection (Visudyne™) was reconstituted with 7 mL of sterile water for injection to provide 7.5 mL containing a final concentration of 2 mg/mL. The volume of reconstituted drug required to achieve a dose of 6 mg/M^2 (based upon the height and weight of the subject, calculated from a nomogram) was withdrawn from the vial and diluted with 5% dextrose for injection to make a total infusion volume of 30 mL. The full infusion volume was administered intravenously over 10 minutes using an appropriate syringe pump and in-line filter. Fifteen minutes after the start of the infusion, light was administered to the lesion from a diode laser through a fiber optic delivered via a slit lamp, and utilizing a suitable lens. A light dose of 50J/cm^2 was applied at a fluency rate of 600 mW/cm^2, 50J/cm^2 (83 second exposure).
Subjects were evaluated by fluorescein angiography approximately every three months, and their best corrected visual acuity was assessed. Subjects were retreated if evidence of CNV leakage was detected by fluorescein angiography.

[2] = system: CNV lesions classified as predominantly classic or minimally classic; conditions: cited from earlier work
[3] = baseline visual acuity <65 letters, lesion size all, 24 months
[4] = baseline visual acuity <65 letters, lesion size ≦4DA, 24 months
[5] = baseline visual acuity <65 letters, lesion size ≧4DA, 24 months
[6] = baseline visual acuity ≧65 letters, lesion size all, 24 months
[7] = baseline visual acuity ≧65 letters, lesion size ≦4DA, 24 months
[8] = baseline visual acuity ≧65 letters, lesion size ≧4DA, 24 months

verteporfin
30 Letter Response Rate (percent of subjects losing less than 30 letters) Difference V-P [1, 3]: 27.5% | Mean VA Difference [1, 3]: 11.7 | 15 Letter Response Rate (percent of subjects losing less than 15 letters) Difference V-P ([1]; baseline visual acuity <65 letters, lesion size all, 24 months after initial treatment, 6 mg/M^2 i.v., 50 J/cm^2): 33.8% | 15 Letter Response Rate (percent of subjects losing less than 15 letters) Difference V-P [1, 4]: 43.8% | 30 Letter Response Rate (percent of subjects losing less than 30 letters) Difference V-P [1, 4]: 19.4% | Mean VA Difference [1, 4]: 12.3 | 15 Letter Response Rate (percent of subjects losing less than 15 letters) Difference V-P [1, 5]: 21.5% | 30 Letter Response Rate (percent of subjects losing less than 30 letters) Difference V-P [1, 5]: 30.0% | Mean VA Difference [1, 5]: 9.4 | 15 Letter Response Rate (percent of subjects losing less than 15 letters) Difference V-P [1, 6]: −3.9% | 30 Letter Response Rate (percent of subjects losing less than 30 letters) Difference V-P [1, 6]: 8.5% | Mean VA Difference [1, 6]: 1.5 | 15 Letter Response Rate (percent of subjects losing less than 15 letters) Difference V-P [1, 7]: 12.5% | 30 Letter Response Rate (percent of subjects losing less than 30 letters) Difference V-P [1, 7]: 26.8% | Mean VA Difference [1, 7]: 9.3 | 15 Letter Response Rate (percent of subjects losing less than 15 letters) Difference V-P [1, 8]: −24% | 30 Letter Response Rate (percent of subjects losing less than 30 letters) Difference V-P [1, 8]: −5.3% | Mean VA Difference [1, 8]: −3.3 | response of subjects having occult lesions to PDT ([1]; study of Example 3, in words): respond to PDT | treatment benefit with verteporfin PDT ([2]; lesions classified as minimally classic): did not | treatment benefit with verteporfin PDT ([2]; lesions classified as predominantly classic): large treatment benefit
